The values that follow come from PubChem BioAssay (NCI).

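All cell lines were grown in 96-well plates and treated with compound for 48 hours. Here, GI50 denotes the concentration required for 50% inhibition of growth. The concentration for full growth arrest is given as TGI.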

Among the test systems are DLD-1 colon; HOP-18 NSCLC; SN12K1 renal; DMS 114 small cell lung; M19-MEL melanoma; XF 498 CNS; P388 leukemia; SNB-78 CNS; DMS 273 small cell lung; LXFL 529 NSCLC; RXF-631 renal.
Holding throughout (experiment): NCI tumour cell line growth inhibition, 48 h

For `Cc1cc([NH-])c([NH-])cc1C.[Cl][Pt+2][Cl]`, the GI50 is 8 µM in the experiment on DLD-1 colon; over 82 µM in the experiment on HOP-18 NSCLC; 13.5 µM in the experiment with SN12K1 renal; 8.09 µM in the experiment with DMS 114 small cell lung; 8.79 µM with M19-MEL melanoma; 19.7 µM with XF 498 CNS. The GI50 with P388 leukemia is 2420 nM; in the experiment on SNB-78 CNS, 26.5 µM. The TGI was 28.9 µM in the experiment on DLD-1 colon; over 100 µM with HOP-18 NSCLC; 32 µM with SN12K1 renal; 32.3 µM in the experiment with DMS 114 small cell lung; 31.2 µM in the experiment with M19-MEL melanoma; 46.4 µM in the experiment on XF 498 CNS. Besides, the TGI was 10.2 µM in the experiment on P388 leukemia and over 96 µM in the experiment on SNB-78 CNS.
Consider `Cc1ccc(C)c(NC(=O)C(=O)C(C(=O)c2ccc3ccccc3c2)C2OC(=O)c3ccccc32)c1` (stereo unspecified), for which the TGI in the experiment on DMS 273 small cell lung was over 100 µM; in the experiment with LXFL 529 NSCLC, 25.1 µM; in the experiment with DLD-1 colon, 64.3 µM; with DMS 114 small cell lung, 26.3 µM; with RXF-631 renal, 65.6 µM; in the experiment on M19-MEL melanoma, 30.5 µM. The TGI in the experiment on XF 498 CNS was 44 µM; in the experiment on SNB-78 CNS it was over 100 µM.
Turning to `CCCCCOc1ccc(C=Nc2ccc(CCc3ccc(N=Cc4ccc(OCCCCC)cc4)cc3)cc2)cc1`, the TGI in the experiment on DMS 273 small cell lung, with DLD-1 colon, in the experiment on HOP-18 NSCLC, in the experiment on SN12K1 renal, in the experiment with DMS 114 small cell lung and in the experiment with M19-MEL melanoma was over 100 µM in each case. For the same molecule, the TGI in the experiment with XF 498 CNS, in the experiment with P388 leukemia and in the experiment on SNB-78 CNS was over 100 µM in each case.
For the molecule `COC(=O)Cc1cc(O)c2c(c1O)C(=O)c1ccccc1C2=O`, the TGI in the experiment on DMS 273 small cell lung, in the experiment with LXFL 529 NSCLC, in the experiment on DLD-1 colon, with HOP-18 NSCLC, in the experiment on DMS 114 small cell lung and in the experiment with RXF-631 renal was over 100 µM throughout. In addition, the TGI with M19-MEL melanoma and in the experiment on SNB-78 CNS was over 100 µM throughout.
Turning to `CCOC(=O)C(C#N)(Cc1c[nH]c2ccccc12)NC(C)=O` (stereo unspecified), the TGI with DMS 273 small cell lung, in the experiment on LXFL 529 NSCLC, in the experiment on DLD-1 colon, with DMS 114 small cell lung and with M19-MEL melanoma was over 100 µM throughout.
In the case of `CNC(C)(C)Cc1ccc(Cl)cc1`, the TGI in the experiment on LXFL 529 NSCLC, in the experiment on DLD-1 colon, with DMS 114 small cell lung, in the experiment with M19-MEL melanoma and in the experiment with XF 498 CNS was over 100 µM each time.
Turning to `c1ccc(-c2csc3c4ccccc4c4ccccc4[n+]23)cc1`, the TGI in the experiment on DMS 273 small cell lung was 4.58 µM; in the experiment with LXFL 529 NSCLC it was 16.6 µM; with DLD-1 colon it was 25.4 µM; with HOP-18 NSCLC it was 49.6 µM; with DMS 114 small cell lung, 4.89 µM; in the experiment on M19-MEL melanoma, 4.22 µM. Also, the TGI in the experiment on XF 498 CNS is 5.46 µM; with SNB-78 CNS it was 11.1 µM.
With `C1=C(c2ccccc2)SC(N2CCCCC2)S1` (stereo unspecified), the TGI with DMS 273 small cell lung, in the experiment on LXFL 529 NSCLC, with DLD-1 colon, in the experiment with DMS 114 small cell lung, in the experiment on M19-MEL melanoma and in the experiment with XF 498 CNS was over 100 µM throughout. In the experiment on SNB-78 CNS, this molecule returned a TGI of over 100 µM.
